These results are taken from US5714467A, “Antibacterial and antimalarial hybrid peptides” (The Rockefeller University, priority 1993, dated 1998).

One assay deals with C. albicans ATCC 14053. The assay can be described thus: microdilution broth assay, dermatophytes (yeast for comparison). It is filed as cell-based, Candida albicans. The following applies: 48 hours at 30° C., M3 broth. As for the experimental part: (§1) Antimicrobial susceptibility testing was performed using a microdilution broth assay as with the aerobes.
(§2) Antibiotic medium 3 (M3) (BBL catalog number 10932) was used in the microtiter plates for diluting the peptide stock solution and for diluting the bacterial inoculum.
(§3) The dermatophyte cultures were grown on Potato Dextrose Agar for one week. A one centimeter square of growth is teased from the leading edge of the fungus and placed in 2 ml of sterile water in a screw-capped glass tube with glass beads (2 mm) on the bottom. The tubes were vortexed for 20 seconds each and placed in a shaker incubator (New Brunswick incubator shaker Model G25) at 37° C. for 30 minutes. Tubes were removed from the shaker incubator and allowed to settle for 10 minutes. The supernatant was read on a BECKMAN® DU-64 spectrophotometer at 530 nm for percent transmission and adjusted with M3 broth to a transmission of 65%. This culture was then diluted 1:10 in M3 broth for inoculating the microtiter plates.
(§4) The microtiter plates were incubated for 48 hours at 30° C. in a PRECISION® mechanical convection oven incubator Model 4. Plates are never stacked more than four high.
(§5) Candida albicans, a yeast was used for comparison.

For the next assay, the system named is T. mentagrophytes. As to the kind of experiment: microdilution broth assay, dermatophytes. The assay is classed as cell-based. Conditions: M3 broth. As for the experimental part:
as §1, §2, §3, §4, §5

In a further assay the test system is T. rubrum ATCC 36262. The assay can be described thus: microdilution broth assay, dermatophytes. It is filed as cell-based. Conditions: 48 hours at 30° C., M3 broth. As for the experimental part:
as §1, §2, §3, §4, §5

Another assay has as its system E. coli ATCC 25922. As to the kind of experiment: anaerobic microdilution broth assay (NCCLS M11-T2), standard organism. It is filed as cell-based, Escherichia coli. Conditions: standard in the P. gingivalis test, anaerobic 48 hours. As for the experimental part: (§6) Antimicrobial susceptibility testing was performed using a microdilution broth assay according to the guidelines of the National Committee for Clinical Laboratory Standards (NCCLS) Document M11-T2 (NCCLS, 1989).
(§7) One-half strength Brain Heart Infusion (BHI) (BBL catalog number 11059) supplemented with hemin and menadione is used in the microtiter plates for diluting the peptide stock solution and for diluting the bacterial inoculum.
(§8) Inoculum is prepared by culturing bacteria from an overnight plate in 5 ml of supplemented BHI. The next day the overnight broth culture is read on a BECKMAN® DU-64 spectrophotometer at 630 nm and diluted with supplemented BHI until an absorbance of 0.02 is reached which represents approximately 1×10^6 colony-forming units per milliliter (CFUs/ml). This culture is used to inoculate the microtiter plates. A sample of the inoculating culture is diluted in supplemented BHI through a series of 1:10 dilutions and the 10^-5 and 10^-6 dilutions are plated, incubated 48 hours at 35°-37° C. anaerobically, and counted to verify inoculum size.
(§9) The microtiter plates are incubated anaerobically for 48 hours at 35°-37° C. in a COY® anaerobic chamber Type A. Plates are never stacked more than four high.
E. coli ATCC 25922 was used as a standard.

A further assay has as its system Porphyromonas gingivalis. The assay can be described thus: anaerobic microdilution broth assay (NCCLS M11-T2), oral pathogen. The assay is classed as cell-based. As for the experimental part: as §6, §7, §8, §9
The subject of another assay is S. aureus. As to the kind of experiment: microdilution broth assay (NCCLS M7-A1), aerobes. The assay is classed as cell-based, Staphylococcus aureus. The following applies: 14 strains. On the procedure: (§10) Antimicrobial susceptibility testing was performed using a microdilution broth assay according to the guidelines of the National Committee for Clinical Laboratory Standards (NCCLS) Document M7-A1 (NCCLS. 1990).
(§11) The peptide powder as an acetate salt was weighted on an analytical balance and transferred to a polypropylene tube. A solution was prepared at a concentration of 1.024 mg/ml by dissolving the powder in autoclaved (121° C., 20 psi, 20 minutes) deionized water. The peptide solution was used immediately, stored for up to ten days at 4° C., or stored long-term at -70° C. in 1 ml aliquots in polypropylene cryovials.
(§12) Mueller-Hinton broth (MHB) (BBL catalog number 11443) was used in the microtiter plates for diluting the peptide stock solution and for diluting the bacterial inoculum. […]
(§13) Inoculum was prepared by taking a sample of bacteria from a 16-20 hours plate culture and inoculating into 5 ml of (MHB) (BBL catalog number 95834) to an absorbance reading of approximately 0.02 at 600 nm (Ab600) on a BECKMAN® DU-64 spectrophotometer. The culture was incubated at 35°-37° C. with shaking (New Brunswick incubator shaker Model G25) and the growth monitored spectrophotometrically until it reached mid-logarithmic phase (Ab600 of approximately 0.06). This absorbance represents approximately 1×10^8 colony-forming units per milliliter (CFUs/ml). […]

The test system of a further assay is p. aeruginosa. The assay can be described thus: microdilution broth assay (NCCLS M7-A1), aerobes. The assay is classed as cell-based, Pseudomonas aeruginosa. The following applies: 13 strains. On the procedure: as §10, §11, §12, §13
The test system of a further assay is s. epidermidis. The assay can be described thus: microdilution broth assay (NCCLS M7-A1), aerobes. It is filed as cell-based. The following applies: 12 strains. On the procedure: as §10, §11
(§14) Mueller-Hinton broth (MHB) (BBL catalog number 11443) was used in the microtiter plates for diluting the peptide stock solution and for diluting the bacterial inoculum. MBH 5 ml prepared tubes (BBL catalog number 95834) were used to culture an overnight plate of bacteria to the logarithmic phase of growth for inoculating the microtiter plates.
(§15) Inoculum was prepared by taking a sample of bacteria from a 16-20 hours plate culture and inoculating into 5 ml of (MHB) (BBL catalog number 95834) to an absorbance reading of approximately 0.02 at 600 nm (Ab600) on a BECKMAN® DU-64 spectrophotometer. The culture was incubated at 35°-37° C. with shaking (New Brunswick incubator shaker Model G25) and the growth monitored spectrophotometrically until it reached mid-logarithmic phase (Ab600 of approximately 0.06). This absorbance represents approximately 1×10^8 colony-forming units per milliliter (CFUs/ml). The culture was then diluted to approximately 1×10^6 CFUs/ml in autoclaved MHB (BBL catalog number 11443) to produce the inoculum. A sample of the inoculating culture was diluted in 3 mM phosphate buffer (pH 7.2) through a series of 1:10 dilutions and the 10^-4 and 10^-5 dilutions were plated, incubated overnight at 35°-37° C., and counted the next day to verify inoculum size.
(§16) Microtiter plates (Corning manufacturer number 2585096) were prepared with the use of the BECKMAN® Biomek 1000 (Beckman Instruments, Somerset, N.J.) automated laboratory workstation in combination with manual techniques. The microtiter plate was filled with diluent broth using the Biomek 1000 instrument. Peptide stock solution was manually added to the top drug well of the microtiter plate using a Rainin Pipetman Model P-200. The peptide was serially diluted in two-fold dilutions using the Biomek 1000 instrument. One hundred microliters of the standardized bacterial inoculum was added to every well of the microtiter plates (except the blanks) using an Eppendorf Repeater Model 4780 pipet equipped with an Eppendorf 5 ml combitip (catalog number 22 26 130-4).
(§17) The final concentrations of peptide solution in the wells ranged from 0.25 ug/ml to 256 ug/ml. The final concentration of bacteria in the wells was 1-5×10^5 CFUs/ml. The final volume in the wells was 200 μl.
(§18) The microtiter plates were incubated overnight (16-20 hours) at 35°-37° C. in a Precision mechanical convection oven incubator Model 30M. Plates were not stacked more than four high.

In another assay the test system is Xanthomonas. The assay can be described thus: microdilution broth assay (NCCLS M7-A1), aerobes. It is filed as cell-based. Conditions: 12 strains. On the procedure:
as §10, §11, §14, §15, §16, §17, §18

The next assay relates to Group A Streptococcus. The assay can be described thus: microdilution broth assay (NCCLS M7-A1), aerobes. It is filed as cell-based. Conditions: 15 strains. On the procedure:
as §10, §11, §14, §15, §16, §17, §18

A further assay relates to Streptococcus pneumoniae. The assay can be described thus: microdilution broth assay (NCCLS M7-A1), aerobes. The assay is classed as cell-based. Conditions: 11 strains. On the procedure:
as §10, §11, §14, §15, §16, §17, §18

A further assay concerns Acinetobacter. The assay can be described thus: microdilution broth assay (NCCLS M7-A1), aerobes. The assay is classed as cell-based. Conditions: 12 strains. As for the experimental part:
as §10, §11, §14, §15, §16, §17, §18

As to “Gly-Ile-Gly-Lys-Phe-Leu-Lys-Lys-Ala-Lys-Lys-Gly-Ile-Gly-Ala-Val-Leu-Lys-Val-Leu-Thr-Thr-Gly-Leu”, the MIC, C. albicans ATCC 14053 with C. albicans ATCC 14053 came to 64 µg/mL. The MIC, T. mentagrophytes ATCC 4808 with T. mentagrophytes (strain ATCC 4808, 48 hours at 30° C.) turned out to be 16 µg/mL. The substance further registered an MIC, T. mentagrophytes ATCC 18748 in the assay with T. mentagrophytes (strain ATCC 18748, 48 hours at 30° C.) of 16 µg/mL. This substance showed an MIC, T. rubrum ATCC 36262 against T. rubrum ATCC 36262 of 256 µg/mL. Besides, the “MIC, E. coli ATCC 25922” value in the assay on E. coli ATCC 25922 came to 8 µg/mL. Also, the “MIC, P. gingivalis strain 9-14K-1” value with Porphyromonas gingivalis (strain 9-14K-1, anaerobic 48 hours) was 16 µg/mL. Also, the “MIC, P. gingivalis strain 381” value with Porphyromonas gingivalis (strain 381, anaerobic 48 hours) turned out to be 64 µg/mL. For the same substance, the “MIC, P. gingivalis strain 2561” value against Porphyromonas gingivalis (strain 2561, anaerobic 48 hours) came to 16 µg/mL. Besides, the “MIC, P. gingivalis strain A7A1-28” value with Porphyromonas gingivalis (strain A7A1-28, anaerobic 48 hours) worked out at 32 µg/mL. Moreover, the “MIC, P. gingivalis strain ATCC 33277” value against Porphyromonas gingivalis (strain ATCC 33277, anaerobic 48 hours) was in the range of 64 to 128 µg/mL. Also, in the assay on Porphyromonas gingivalis (strain ESO-127, anaerobic 48 hours), the “MIC, P. gingivalis strain ESO-127” value was in the range of 4 to 8 µg/mL. Also, the “MIC, P. gingivalis strain FAY-19M-1” value in the assay with Porphyromonas gingivalis (strain FAY-19M-1, anaerobic 48 hours) was found to be 16 µg/mL. Also, the “MIC, P. gingivalis strain VAG-1” value with Porphyromonas gingivalis (strain VAG-1, anaerobic 48 hours) stood at 64 µg/mL. Further, the “MIC, P. gingivalis strain VAG-4” value in the assay with Porphyromonas gingivalis (strain VAG-4, anaerobic 48 hours) was found to be 32 µg/mL. The “MIC, P. gingivalis strain W-50” value in the assay with Porphyromonas gingivalis (strain W-50, anaerobic 48 hours) was 32 µg/mL. Moreover, the “MIC RANGE, S. aureus” value in the assay on S. aureus lay in the range of 2 to 4 µg/mL. Further, the “MIC RANGE, p. aeruginosa” value in the assay on p. aeruginosa lay within 2 to 32 µg/mL. The “MIC RANGE, s. epidermidis” value in the assay on s. epidermidis is 2 to 4 µg/mL. In the assay with Xanthomonas, the “MIC RANGE, Xanthomonas” value was 2 to 8 µg/mL. Also, the “MIC RANGE, Group A Streptococcus” value in the assay with Group A Streptococcus was in the range of 2 to 4 µg/mL. Further, the “MIC RANGE, Streptococcus pneumoniae” value in the assay on Streptococcus pneumoniae lay in the range of 8 to 16 µg/mL. In addition, the “MIC RANGE, Acinetobacter” value with Acinetobacter was in the range of 2 to 4 µg/mL.
